Results on 18 compounds are retold here after patent publication US8536160B2, “Azaheterocyclyl derivatives of androstanes and androstenes as medicaments for cardiovascular disorders” (priority 2006, dated 2013).

Broadly, the IC50 is the concentration that gives 50% inhibition.

Structures can show the parent of a compound that is named as a salt. Where two headings read alike, the source gives them in different places.

The test system of data set [1] is fresh rat hepatocytes. Kind of data set: Metabolism in fresh rat hepatocytes. Particulars: for % of compound metabolized after 60 minutes: test item nominal concentration 45 μM, 2590000-3084000 hepatocytes/ml.
Data set [2] concerns the target Dog Kidney Na+, K+-ATPase (Canis lupus familiaris, UniProt P50997). Briefly: Inhibition of the enzymatic activity of purified Na+,K+-ATPase (hydrolysis of 32P-ATP). The class given is biochemical.
In data set [3] the test system is anesthetized guinea-pig. Briefly: Inotropic effect and lethal dose, slow intravenous infusion in anesthetized guinea-pig. The class given is in vivo. The arrangement: Maximum dose infused: unit not given here. Particulars: for Emax / ED80 / ED (max): Cavia porcellus, iv, 1.5 h; for Emax: read-out: Emax % increase in +dP/dTmax; for ED80: read-out: ED80 (inotropic potency, dose increasing +dP/dTmax by 80%); for ED (max): read-out: EDmax (dose inducing maximum positive inotropic effect); for % decrease from Emax after 20 min from the end of the infusion: duration of the inotropic effect; for Maximum dose infused: maximum dose infused in the survived animals; for Lethal dose/ED80 (safety ratio): calculated for the died animals.

Setting [4] is: slow i.v. infusion over 90 minutes, anesthetized guinea-pig, maximum increase in contractile force.
Setting [5] is: slow i.v. infusion over 90 minutes, anesthetized guinea-pig.
[6] abbreviates: slow i.v. infusion over 90 minutes.
Where [7] appears, read: read-out: Na+, K+-ATPase Inhibition IC50.
Setting [8] is: dog kidney enzyme, hydrolysis of 32P-ATP in presence and absence of compound, read-out: Na+, K+-ATPase Inhibition IC50.

In the case of `CC12CCC3C(C(O)CC4CC(=NOC5CCNC5)CCC43C)C1CCC2=O` (mixture of isomers) [I-cj, (E,Z) 3-[3′-(R)-Pyrrolidinyl]oxyimino-7α-hydroxyandrostane-17-one fumarate], in data set [1], the “% of compound metabolized after 60 minutes” value (“% of compound metabolized” for short) was found to be 20%. Moreover, the IC50 in data set [2] (Na+, K+-ATPase Inhibition IC50) stood at 220 nM.

For `CON=C1CC2C3CCC(=O)C3(C)CCC2C2(C)CCC(=NOC3CCNC3)CC12` (single isomer, unassigned) [I-be], in data set [1], the “% of compound metabolized” value is given as 42%. Also, in data set [2] (Na+, K+-ATPase Inhibition IC50), the IC50 amounted to 260 nM.

As to `C[C@]12CC[C@H]3[C@@H](C/C(=N\O)[C@@]4(O)CC(=NO[C@@H]5CCNC5)CC[C@]34C)[C@@H]1CCC2=O` (mixture of isomers) [I-bp, (E,Z) 3-[3-(R)-Pyrrolidinyl]oxyimino-5α-hydroxy-6-(E)-hydroxyiminoandrostane-17-one hydrochloride], the “% of compound metabolized” value in data set [1] was 8%. The Emax in data set [3] (setting [4]) is 226%. Besides, in data set [3] (setting [5]), the ED80 was found to be 0.37 µmol/kg and the ED (max) came to 1.8 µmol/kg. Besides, the “% decrease from Emax after 20 min from the end of the infusion” value (from here on “% decrease from Emax after 20 min”) in data set [3] (anesthetized guinea-pig) is listed as 100%. In data set [3] (setting [6]), this compound yielded a Maximum dose infused of 4.3.

In the case of `CC12CCC3C(C(O)C(CO)C4CC(=NOC5CCNC5)CCC43C)C1CCC2=O` (single isomer, unassigned) [I-dk, hydrochloride], the “% of compound metabolized” value in data set [1] is recorded as 5%. Further, the IC50 in data set [2] (Na+, K+-ATPase Inhibition IC50) was 5.8 nM.

Regarding `CC12CCC3C(CC(O)C4CC(=NOC5CCNC5)CCC43C)C1CCC2=O` (single isomer, unassigned) [I-an, hydrochloride], the “% of compound metabolized” value in data set [1] worked out at 21%. Also, the IC50 in data set [2] (Na+, K+-ATPase Inhibition IC50) amounted to 580 nM.

For the compound `C=C1C[C@H]2[C@@H]3CCC(=O)[C@@]3(C)CC[C@@H]2[C@@]2(C)CCC(=NO[C@@H]3CCNC3)C[C@]12O` (mixture of isomers) [I-bh, (E,Z) 3-[3′-(R)-Pyrrolidinyl]oxyimino-5α-hydroxy-6-methylenandrostane-17-one hydrochloride], in data set [3] (setting [4]), the Emax amounted to 173%. Moreover, in data set [3] (setting [5]), the ED80 was found to be 1.91 µmol/kg, the ED (max) is 3.8 µmol/kg and the Dead/treated is recorded as 0/3. In data set [3] (anesthetized guinea-pig), the “% decrease from Emax after 20 min” value is 63%. For the same compound, the Maximum dose infused in data set [3] (setting [6]) is recorded as 6.4. Further, the IC50 in data set [2] (Na+, K+-ATPase Inhibition IC50) was 12 nM.

In the case of `C[C@]12CCC(=NO[C@@H]3CCNC3)C[C@@H]1[C@@H](C(N)=O)C[C@@H]1[C@@H]2CC[C@]2(C)C(=O)CC[C@@H]12.Cl` [I-at, (Z,E) 3-(3-(R)-Pyrrolidinyloxyimino)-6α-carbamoylandrostane-17-one hydrochloride], the “% decrease from Emax after 20 min” value in data set [3] (anesthetized guinea-pig) is reported as 16%. In data set [3] (setting [5]), the Dead/treated is given as 0/4; the “ED80 (inotropic potency, dose increasing +dP/dTmax by 80%)” value was found to be 2.21 µmol/kg; the “EDmax (dose inducing maximum positive inotropic effect)” value is 8.82 µmol/kg. Besides, the “Emax % increase in +dP/dTmax” value in data set [3] (setting [4]) came out at 109%. This compound gave a Maximum dose infused in data set [3] (setting [6]) of 25.0. The IC50 in data set [2] (setting [7]) stood at 140 nM.

`C#CC1CC2C3CCC(=O)C3(C)CCC2C2(C)CCC(=NOC3CCNC3)CC12` (mixture of isomers) [I-bb, (E,Z) 3-[3′-(R)-Pyrrolidinyl]oxyimino-6α-ethynylandrostane-17-one hydrochloride]: the Emax in data set [3] (setting [4]) is 147%. For the same compound, in data set [3] (setting [5]), the ED80 is 3.7 µmol/kg, the ED (max) is 6.39 µmol/kg and the Dead/treated was 0/3. Also, in data set [3] (anesthetized guinea-pig), the “% decrease from Emax after 20 min” value came out at 29%. Also, in data set [3] (setting [6]), the Maximum dose infused was found to be 6.5. Moreover, the IC50 in data set [2] (Na+, K+-ATPase Inhibition IC50) came out at 110 nM.

In the case of `CON=C1CC2C3CCC(=O)C3(C)CCC2C2(C)CCC(=NOC3CCNC3)CC12O` (single isomer, unassigned) [I-bw], in data set [1], the “% of compound metabolized” value came out at 24%. Besides, the IC50 in data set [2] (setting [8]) worked out at 39 nM.

Take `CC12CCC3C(CC(=C(F)F)C4CC(=NOC5CCNC5)CCC43C)C1CCC2=O` (mixture of isomers) [I-az, (E,Z) 3-[3-(R)-Pyrrolidinyl]oxyimino-6-difluoromethyleneandrostan-17-one hydrochloride]: the Emax in data set [3] (setting [4]) turned out to be 244%. Also, in data set [3] (setting [5]), the ED80 amounted to 6.69 µmol/kg, the ED (max) was found to be 18.4 µmol/kg and the Dead/treated is 0/3. In addition, the “% decrease from Emax after 20 min” value in data set [3] (anesthetized guinea-pig) is listed as 20%. Besides, the Maximum dose infused in data set [3] (setting [6]) was 25.2. In addition, the IC50 in data set [2] (Na+, K+-ATPase Inhibition IC50) amounted to 21 nM.

`CC12CCC3C(CC(O)C4CC(=NOC5CCNC5)CCC43C)C1CCC2=O` (single isomer, unassigned) [I-dp, hydrochloride]: the Emax in data set [3] (setting [4]) stood at 358%. In data set [3] (setting [5]), the ED80 is 3.92 µmol/kg, the ED (max) was 43.6 µmol/kg and the Dead/treated is listed as 2/2. Moreover, the “Lethal dose/ED80 (safety ratio)” value in data set [3] (anesthetized guinea-pig) is given as 49. In addition, the Maximum dose infused in data set [3] (setting [6]) turned out to be 148. Also, the IC50 in data set [2] (Na+, K+-ATPase Inhibition IC50) was 1200 nM.

`CC12CCC3C(C(=O)C(CO)C4CC(=NOC5CCNC5)CCC43C)C1CCC2=O` (mixture of isomers) [I-cs, (E,Z) 3-[3′-(R)-Pyrrolidinyl]oxyimino-6α-hydroxymethylandrostane-7,17-dione fumarate]: the “% of compound metabolized” value in data set [1] is 5%. Besides, inhibition in data set [2] (Na+, K+-ATPase Inhibition IC50, dog kidney enzyme, hydrolysis of 32P-ATP in presence and absence of compound) was half-maximal at 13 nM (IC50).

Consider `CC12CCC3C(CC(=O)C4CC(=NOC5CCNC5)CCC43C)C1CCC2=O` (mixture of isomers) [I-ae, (E,Z) 3-[3-(R)-Pyrrolidinyl]oxyiminoandrostane-6,17-dione hydrochloride], for which the Emax in data set [3] (setting [4]) stood at 147%. Besides, in data set [3] (setting [5]), the ED80 stood at 2.28 µmol/kg, the ED (max) came out at 4.26 µmol/kg and the Dead/treated is reported as 0/3. Moreover, in data set [3] (anesthetized guinea-pig), the “% decrease from Emax after 20 min” value is recorded as 74%. Further, in data set [3] (setting [6]), the Maximum dose infused came to 6.4. Also, inhibition in data set [2] (Na+, K+-ATPase Inhibition IC50) was half-maximal at 26 nM (IC50).

In the case of `C[C@]12CC[C@H]3[C@@H](CC[C@@]4(O)CC(=NO[C@@H]5CCNC5)CC[C@]34C)[C@@H]1CCC2=O` (mixture of isomers) [I-am, (E,Z) 3-(3-(R)-Pyrrolidinyl)oxyimino-5α-hydroxyandrostane-17-one hemifumarate], the “% of compound metabolized” value in data set [1] was found to be 12%. Besides, the Emax in data set [3] (setting [4]) turned out to be 221%. In data set [3] (setting [5]), the ED80 worked out at 3.87 µmol/kg, the ED (max) turned out to be 15.3 µmol/kg and the Dead/treated was 0/3. The “% decrease from Emax after 20 min” value in data set [3] (anesthetized guinea-pig) is reported as 100%. Besides, the Maximum dose infused in data set [3] (setting [6]) worked out at 25.2. In addition, the IC50 in data set [2] (Na+, K+-ATPase Inhibition IC50) is 210 nM.

In the case of `CC1CC2CC(=NOC3CCNC3)CCC2(C)C2CCC3(C)C(=O)CCC3C12` (mixture of isomers) [I-cl, (E,Z) 3-[3′-(R)-Pyrrolidinyl]oxyimino-7β-methylandrostane-17-one hydrochloride], in data set [3] (setting [4]), the Emax came to 187%. Besides, in data set [3] (setting [5]), the ED80 is 3.34 µmol/kg, the ED (max) worked out at 6.34 µmol/kg and the Dead/treated is 0/3. Moreover, the “% decrease from Emax after 20 min” value in data set [3] (anesthetized guinea-pig) worked out at 7%. In data set [3] (setting [6]), this compound registered a Maximum dose infused of 6.4. The compound also returned a half-inhibitory concentration (IC50) in data set [2] (Na+, K+-ATPase Inhibition IC50) of 150 nM.

For the compound `C[C@]12CCC(=NOCCN)CC1C(=O)C[C@@H]1[C@@H]2CC[C@]2(C)C(=O)CC[C@@H]12.Cl` (mixture of isomers) [compd 22b, (EZ) 3-(2-aminoethoxyimino)androstane-6,17-dione hydrochloride, reference compound], in data set [1] (45 μM), the “metabolism in fresh rat hepatocytes within 60 minutes (in words)” value is listed as “almost completely metabolized”. Also, the “% of compound metabolized” value in data set [1] worked out at 95%. In addition, the Emax in data set [3] (setting [4]) was found to be 182%. In addition, in data set [3] (setting [5]), the ED80 was 1.82 µmol/kg, the ED (max) amounted to 5.74 µmol/kg and the Dead/treated is 7/8. Moreover, in data set [3] (anesthetized guinea-pig), the “Lethal dose/ED80 (safety ratio)” value is given as 22.6 and the “% decrease from Emax after 20 min” value amounted to 100%. Besides, the Maximum dose infused in data set [3] (setting [6]) is 32.1.

As for `CC12CCC3C(CC(CCO)C4CC(=NOC5CCNC5)CCC43C)C1CCC2=O` (mixture of isomers) [I-bc, (E,Z) 3-[3′-(R)-Pyrrolidinyl]oxyimino-6α-(2-hydroxyethyl)androstane-17-one hydrochloride], the Emax in data set [3] (setting [4]) is 183%. In addition, in data set [3] (setting [5]), the ED80 turned out to be 1.89 µmol/kg, the ED (max) came to 5.08 µmol/kg and the Dead/treated is recorded as 0/3. For the same compound, in data set [3] (anesthetized guinea-pig), the “% decrease from Emax after 20 min” value stood at 28%. Moreover, the Maximum dose infused in data set [3] (setting [6]) is on record as 6.3. In addition, in data set [2] (setting [8]), the IC50 worked out at 58 nM.

`C=C1CC2C/C(=N/O[C@@H]3CCNC3)CC[C@]2(C)[C@H]2CC[C@]3(C)C(=O)CC[C@H]3[C@H]12.Cl` (stereo partly drawn) [I-cg, (E,Z) 3-[3′-(R)-Pyrrolidinyl]oxyimino-7-methyleneandrostane-17-one hydrochloride]: the “% of compound metabolized” value in data set [1] was 28%. Moreover, in data set [2] (setting [7]), the IC50 worked out at 240 nM.
